Assay results reported in ChEMBL document CHEMBL4831515 (J Med Chem, 2021).

Tests used:
[1] = Acute toxicity in Kunming mouse assessed as effect on body weight at 1000 mg/kg, ig measured every day for 7 days; format: organism-based; conditions: in vivo, po, 168 h, time 7 day
[2] = AUC(0 to last) in Sprague-Dawley rat at 2 mg/kg, iv measured after 5 to 600 mins by LC-MS/MS analysis; format: ADME, organism-based; set-up: route intravenous, dose 2 mg/kg, time upper 600 min, time lower 5 min; conditions: in vivo
[3] = tested on: Human immunodeficiency virus 1; assay: Antiviral activity against HIV1 3B infected in human MT4 cells assessed as reduction in virus-induced cytopathogenic effect by MTT assay; conditions: Human immunodeficiency virus 1, 3B
[4] = Half life in Sprague-Dawley rat at 20 mg/kg, po measured after 15 to 720 mins by LC-MS/MS analysis; format: ADME, organism-based; conditions: in vivo, time 15-720 min
[5] = Acute toxicity in Kunming mouse assessed as effect on growth at 1000 mg/kg, ig measured every day for 7 days; format: organism-based; conditions: in vivo, po, 168 h, time 7 day
[6] = Half life in Sprague-Dawley rat at 2 mg/kg, iv measured after 5 to 600 mins by LC-MS/MS analysis; format: ADME, organism-based; conditions: in vivo, time 5-600 min
[7] = Tmax in Sprague-Dawley rat at 2 mg/kg, iv measured after 5 to 600 mins by LC-MS/MS analysis; format: ADME, organism-based; conditions: in vivo, time 5-600 min
[8] = Cytotoxicity against human MT4 cells assessed as reduction in cell viability by MTT assay
[9] = tested on: Human immunodeficiency virus 1; assay: Antiviral activity against HIV1 harboring F227L/V106A mutant infected in human MT4 cells assessed as reduction in virus-induced cytopathogenic effect by MTT assay; format: functional, organism-based; conditions: Human immunodeficiency virus 1, MT4
[10] = tested on: Human immunodeficiency virus 1; assay: Antiviral activity against wild type HIV1 harboring Y188L mutant infected in human MT4 cells assessed as reduction in virus-induced cytopathogenic effect by MTT assay; conditions: Human immunodeficiency virus 1, MT4
[11] = tested on: Human immunodeficiency virus 1; assay: Antiviral activity against HIV1 RES056 infected in human MT4 cells assessed as reduction in virus-induced cytopathogenic effect by MTT assay; conditions: Human immunodeficiency virus 1, RES056, MT4
[12] = MRT (0 to infinity) in Sprague-Dawley rat at 20 mg/kg, po measured after 15 to 720 mins by LC-MS/MS analysis; format: ADME, organism-based; conditions: in vivo, time 15-720 min
[13] = AUC (0 to last) in Sprague-Dawley rat at 20 mg/kg, po measured after 15 to 720 mins by LC-MS/MS analysis; format: ADME, organism-based; set-up: route oral, time lower 15 min, dose 20 mg/kg, time upper 720 min; conditions: in vivo
[14] = Cmax in Sprague-Dawley rat at 20 mg/kg, po measured after 15 to 720 mins by LC-MS/MS analysis; format: ADME, organism-based; set-up: route oral, dose 20 mg/kg, time 15-720 min; conditions: in vivo
[15] = Volume of distribution in Sprague-Dawley rat at 2 mg/kg, iv measured after 5 to 600 mins by LC-MS/MS analysis; format: ADME, organism-based; conditions: in vivo, time 5-600 min
[16] = Acute toxicity in ig dosed Kunming mouse measured every day for 7 days; format: organism-based; conditions: in vivo, po, time 7 day
[17] = tested on: Human immunodeficiency virus 1; assay: Antiviral activity against HIV1 harboring L100I mutant infected in human MT4 cells assessed as reduction in virus-induced cytopathogenic effect by MTT assay; conditions: Human immunodeficiency virus 1, MT4
[18] = Clearance in Sprague-Dawley rat at 2 mg/kg, iv measured after 5 to 600 mins by LC-MS/MS analysis; format: ADME, organism-based; conditions: in vivo, time 5-600 min
in vitro = conditions: human, liver microsomes
[19] = Stability in human liver microsomes assessed as compound remaining preincubated for 10 mins followed by phosphate buffer addition and incubated for 1 hr and subsequent addition of NADPH regenerating system and measured after 60 mins by LC-MS/MS analysis; format: ADME, Microsome; conditions: time 190 min, read-out: Stability
[20] = target: Human immunodeficiency virus type 1 reverse transcriptase (Human immunodeficiency virus 1, UniProt Q72547); assay: Inhibition of wild type HIV1 reverse transcriptase assessed as reduction in biotin-dUTP incorporation into […] incubated for 1 hrs by ELISA
[21] = tested on: Human immunodeficiency virus 1; conditions: Human immunodeficiency virus 1, MT4
[22] = Cmax in Sprague-Dawley rat at 2 mg/kg, iv measured after 5 to 600 mins by LC-MS/MS analysis; format: ADME, organism-based; set-up: route intravenous, time lower 5 min, dose 2 mg/kg, time upper 600 min; conditions: in vivo
[23] = AUC(0 to infinity) in Sprague-Dawley rat at 2 mg/kg, iv measured after 5 to 600 mins by LC-MS/MS analysis; format: ADME, organism-based; set-up: route intravenous, time 5-600 min, dose 2 mg/kg; conditions: in vivo
[24] = tested on: Human immunodeficiency virus 2; assay: Antiviral activity against wild type HIV2 ROD infected in human MT4 cells assessed as reduction in virus-induced cytopathogenic effect by MTT assay; conditions: Human immunodeficiency virus 2, ROD
[25] = Acute toxicity in Kunming mouse assessed as induction of poisoning at 1000 mg/kg, ig measured every day for 7 days; format: organism-based; conditions: in vivo, po, 168 h, time 7 day
[26] = Tmax in Sprague-Dawley rat at 20 mg/kg, po measured after 15 to 720 mins by LC-MS/MS analysis; format: ADME, organism-based; conditions: in vivo, time 15-720 min
[27] = AUC (0 to infinity) in Sprague-Dawley rat at 20 mg/kg, po measured after 15 to 720 mins by LC-MS/MS analysis; format: ADME, organism-based; set-up: route oral, time lower 15 min, dose 20 mg/kg, time upper 720 min; conditions: in vivo
[28] = tested on: Human immunodeficiency virus 1; assay: Antiviral activity against HIV1 harboring K103N mutant infected in human MT4 cells assessed as reduction in virus-induced cytopathogenic effect by MTT assay; format: functional, organism-based; conditions: Human immunodeficiency virus 1, MT4
[29] = MRT (0 to infinity) in Sprague-Dawley rat at 2 mg/kg, iv measured after 5 to 600 mins by LC-MS/MS analysis; format: ADME, organism-based; conditions: in vivo, time 5-600 min
[30] = Half life in human liver microsomes preincubated for 10 mins followed by phosphate buffer addition and incubated for 1 hr and subsequent addition of NADPH regenerating system and measured after 2 hrs by LC-MS/MS analysis
[31] = Acute toxicity in Kunming mouse assessed as mortality at 1000 mg/kg, ig measured every day for 7 days; format: organism-based; conditions: in vivo, po, 168 h, time 7 day
[32] = tested on: Human immunodeficiency virus 1; assay: Antiviral activity against wild type HIV1 harboring Y181C mutant infected in human MT4 cells assessed as reduction in virus-induced cytopathogenic effect by MTT assay; conditions: Human immunodeficiency virus 1, MT4

Q: Which Activity [1] does the source give for Cc1cc(/C=C/C#N)cc(C)c1Oc1nc(Nc2ccc(C#N)cc2)nc2c1CSCC2 here?
A: The Activity was “Non-Toxic”.

Q: And the AUC(0-t) [2]?
A: The AUC(0-t) was 1510 ng·h/mL.

Q: What about the EC50 [3] of the same compound?
A: Its EC50 is 9.67 nM.

Q: And the half-life [4]?
A: The half-life was 121 min.

Q: What about the Activity [5] of the same compound?
A: The Activity was “Non-Toxic”.

Q: What about the half-life [6] of the same compound?
A: The half-life was 116 min.

Q: What about the Tmax [7] of the same compound?
A: The Tmax was 4.98 min.

Q: And the CC50 [8]?
A: The CC50 was 284000 nM.

Q: And the EC50 [9]?
A: The EC50 was 42.9 nM.

Q: And the EC50 [10]?
A: Its EC50 is 54.5 nM.

Q: And the EC50 [11]?
A: Its EC50 is 47.8 nM.

Q: And the MRT inf [12]?
A: The MRT inf was 174 min.

Q: What about the AUC(0-t) [13] of the same compound?
A: Its AUC(0-t) is 19.5 ng·h/mL.

Q: And the Cmax [14]?
A: The Cmax was 16.6 ng/mL.

Q: And the Vd [15]?
A: Its Vd is 0.702 L/kg.

Q: And the LD50 at 168 h [16]?
A: The LD50 at 168 h was over 1000 mg/kg.

Q: What about the EC50 [17] of the same compound?
A: Its EC50 is 4.44 nM.

Q: What about the clearance [18] of the same compound?
A: The clearance was 23 mL/min/kg.

Q: And the microsomal CLint at 2 h (in vitro)?
A: The microsomal CLint at 2 h was 188 µL/min/mg.

Q: What about the remaining at 1 h [19] of the same compound?
A: The remaining at 1 h was 0.3%.

Q: And the IC50 [20]?
A: The IC50 was 81 nM.

Q: What about the EC50 [21] of the same compound?
A: Its EC50 is 9.78 nM.

Q: And the Cmax [22]?
A: Its Cmax is 8880 ng/mL.

Q: What about the AUC(0-inf) [23] of the same compound?
A: The AUC(0-inf) was 1510 ng·h/mL.

Q: What about the EC50 [24] of the same compound?
A: The EC50 was over 284000 nM.

Q: And the Activity [25]?
A: Its Activity is “Non-Toxic”.

Q: What about the Tmax [26] of the same compound?
A: The Tmax was 15 min.

Q: And the AUC(0-inf) [27]?
A: The AUC(0-inf) was 24 ng·h/mL.

Q: What about the EC50 [28] of the same compound?
A: Its EC50 is 4.44 nM.

Q: What about the MRT inf [29] of the same compound?
A: Its MRT inf is 30 min.

Q: And the half-life at 2 h [30]?
A: The half-life at 2 h was 7.4 min.

Q: What about the Activity [31] of the same compound?
A: The Activity was “Non-Toxic”.

Q: What about the EC50 [32] of the same compound?
A: Its EC50 is 14.9 nM.
